Test results as given in publication PMC8308845, “Discovery of Novel Chemical Series of OXA-48 β-Lactamase Inhibitors by High-Throughput Screening” (Pharmaceuticals, 2021).
Where two headings read alike, the source gives them in different places.

Assays:
OXA-48 [1] = biological target: T1, OXA-48 (Klebsiella pneumoniae, UniProt Q6XEC0); assay: Dilution after preincubation of OXA-48 with inhibitors; assay type: biochemical
T1 construct: made in house; host or cells: E. coli BL21(DE3), T7 expression system
Method: To confirm the reversibility of OXA-48 inhibition by compounds ID1 and ID2, dilution-after-preincubation tests were also performed. Specifically, the experiments were conducted by preincubating (0 and 60 min) five-fold concentrated test compounds and OXA-48 enzyme, next diluting (1:5) the assay well to the standard reaction conditions and adding the nitrocefin substrate. In parallel, a control experiment with compounds ID1 and ID2 tested under the standard protocol was also run. Based on the assay design, reversible inhibitors are expected to regain enzyme activity after dilution of the enzyme-inhibitor (EI) complex and show no significant difference between AC50 values from samples preincubated under high-concentration and standard conditions. Conversely, irreversible inhibitors are envisaged not to recover any enzyme activity following dilution of the tight EI complex, which will translate in a […] in OXA-48 AC50 of high-concentration preincubated samples.
In order to validate the results obtained in the time-dependent inhibition assay, dose–response curves of reference inhibitor tazobactam, test compounds and enzyme mix were prepared as above described and 5-fold concentrated. Compounds (20 μL of 10X compounds) and enzyme (10 μL 20X enzyme in order to have a 0.0014 ng/µL OXA-48 final concentration) were preincubated for a time period of 60 min with the selected compounds and 90 min with tazobactam. The preincubation time was identified in the time-dependent inhibition experiment as suitable to detect a shift of the IC50 value. At the end of preincubation, the mix was diluted 1:5 times to restore the standard assay conditions as described for time-dependent inhibition. The reactions were started by transferring of 15 μL of enzyme-compounds or control diluted from preincubation plate into assay plate and adding 5 μL 4X nitrocefin substrate (25 µM final concentration) after 60 or 90 min. In parallel, a control experiment was assembled under the same conditions, but omitting the preincubation time between compounds and OXA-48.
a. If the AC50 value observed in the standard assay conditions was substantially unaffected by the preincubation with the 5X samples, the corresponding compound was classified as putative reversible inhibitor.

OXA-48 [2] = biological target: T1, OXA-48; assay: Time-dependent inhibition of OXA-48; assay type: biochemical; conditions: for dependence of AC50 on preincubation time with OXA-48: preincubation 0, 15, 30, 60, 90, 120, 180, 240 min
Method: On this basis, compounds ID1 and ID2 as well as the irreversible reference inhibitor tazobactam were tested in dose–response against OXA-48 lactamase, by pre-incubating the compounds with the enzyme at different time points (0, 15, 30, 60, 90, 120, 180, 240 min) before starting the reaction upon addition of the nitrocefin substrate.
Experimental conditions were identical to the ones applied for the primary assay for HTS: 20 μL of 2X compounds with 1% DMSO; 10 μL 4X enzyme (0.0014 ng/µL OXA-48 final concentration) were dispensed into preincubation plate. The reaction buffer was: 20 mM Hepes pH 8.0, 12.5 mM NaCl, 0.005% BSA-pf, 0.0005% Brij-35.
Preincubation time was for a period spanning from 0 up to 240′ at rt between enzyme and compounds and for 15′ at rt between enzyme and control wells. The reactions were started by transferring of 15 μL of enzyme-compounds or enzyme-control from preincubation plate into assay plate adding 5 μL 4X nitrocefin substrate (25 µM final concentration) at different time points, at 0 (i.e., no preincubation)–15–30–60–90–120–180–240 min of preincubation between OXA-48 and compounds. Reading was at PHERAstar (BMG Labtechnologies), in kinetic for up to 60′ (λex: 485 nm; λem: 520 nm). Data were analyzed to determine the respective AC50 values obtained at all the tested preincubation time points.
b. If the AC50 value was inversely proportional to the preincubation time with OXA-48, the compound was assigned as non-reversible inhibitor.

[3] = preincubation time 0 min, concentrated compound and enzyme, diluted 1:5 before nitrocefin, read-out: OXA-48 AC50, High Dose Preincubation
[4] = preincubation time 0 min, read-out: OXA-48 AC50, Standard Preincubation
[5] = preincubation time 60 min, concentrated compound and enzyme, diluted 1:5 before nitrocefin, read-out: OXA-48 AC50, High Dose Preincubation
[6] = preincubation time 60 min, read-out: OXA-48 AC50, Standard Preincubation

T1 sequence (Q6XEC0 23-265, looked up): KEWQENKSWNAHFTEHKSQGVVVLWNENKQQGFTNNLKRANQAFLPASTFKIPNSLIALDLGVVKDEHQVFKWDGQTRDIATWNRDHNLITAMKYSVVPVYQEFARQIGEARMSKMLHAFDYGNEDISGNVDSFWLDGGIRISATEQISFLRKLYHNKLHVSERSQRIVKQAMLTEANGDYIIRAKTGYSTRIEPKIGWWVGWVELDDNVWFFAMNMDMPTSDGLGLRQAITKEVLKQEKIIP

AC50 with concentrated preincubation relative to AC50 under standard assay protocol (OXA-48 [1]; 90 min preincubation) | AC50 (OXA-48 [1]; preincubation time 90 min, concentrated compound and enzyme, diluted 1:5 before nitrocefin, read-out: OXA-48 AC50, High Dose Preincubation) [µM] | AC50 (OXA-48 [1]; preincubation time 90 min, read-out: OXA-48 AC50, Standard Preincubation) [µM] | AC50 after preincubation relative to AC50 without preincubation (OXA-48 [2]; plateau after 90 min of preincubation) | SMILES | AC50 (OXA-48 [1]; [3]) [µM] | AC50 (OXA-48 [1]; [4]) [µM] | AC50 (OXA-48 [1]; [5]) [µM] | AC50 (OXA-48 [1]; [6]) [µM] | dependence of AC50 on preincubation time with OXA-48 (OXA-48 [2])
 |  |  |  | O=C(O)c1ccc(C=Nn2c(S)nnc2-c2ccccc2)cc1 [ID1] | 0.63 | 1.73 | 1.09 | 1.93 | independent on the preincubation time
 |  |  |  | CCc1ccc(-c2n[nH]c3nc(-c4ccc(C(=O)O)cc4)cc(C(=O)O)c23)cc1 [ID2] | 1.01 | 2.31 | 1.45 | 2.44 | independent on the preincubation time
almost three-fold lower | 0.097 | 0.26 | almost six-fold lower | C[C@]1(Cn2ccnn2)[C@H](C(=O)O)N2C(=O)C[C@H]2S1(=O)=O [tazobactam, reference compound] | 0.79 | 0.82 |  |  | inversely proportional time-dependent inhibition
